From patent publication US5550145A, “Potentiation of antimicrobial effects” (Bioglan AB, priority 1992, dated 1996)
In brackets after ≈: the same amount, converted by molar mass.

Experiments:
S. epidermis = test: MIC (minimum inhibitory concentration) determination; format: cell-based
T. rubrum = test: as above; format: cell-based
S. aureus = test: as above; format: cell-based
C. albicans = test: as above; format: cell-based
P. ovale = test: as above; format: cell-based
Gram positive bacteria = details: effects demonstrated only on Gram positive bacteria; cited from earlier work
[1] = generally accepted; cited from earlier work
aerobic bacteria = test: Killing effect; format: cell-based; details: aqueous solutions of tinidazole; test not described
Experimental: The composition was prepared as in Example 4. […] In particular, the product is usable for disease states such as acne and seborrhoea.

Structure (SMILES): OCCCCCO [1,5-pentanediol solution, 1,5-pentanediol]
- MIC value (S. epidermis): 50 mg/mL (≈ 480 mM)
- MIC value (T. rubrum): 10 mg/mL (≈ 96 mM)
- MIC value (S. aureus): 50 mg/mL (≈ 480 mM)
- MIC value (C. albicans): 40 mg/mL (≈ 384 mM)
- MIC value (P. ovale): 20 mg/mL (≈ 192 mM)

Structure (SMILES): CCCCCCCCCCCC(=O)OCC(O)CO (stereo not shown) [monolaurin, monoglyceride of lauric acid]
- antimicrobial properties per se (Gram positive bacteria): exhibit certain antimicrobial properties
- toxicity [1]: completely non-toxic

Structure (SMILES): CCCCCCCCCCCCCC(=O)OCC(O)CO (stereo not shown) [monomyristin, monoglyceride of myristic acid]
- antimicrobial properties per se (Gram positive bacteria): exhibit certain antimicrobial properties
- toxicity [1]: completely non-toxic

Structure (SMILES): CCS(=O)(=O)CCn1c([N+](=O)[O-])cnc1C [tinidazole]
- effectiveness of aqueous solutions against aerobic bacteria (aerobic bacteria): not effective
